Like-named read-outs stand apart in the source and are kept apart here.
Tests used:
MDA-MB-231 cells = test: MTT cytotoxicity, breast cancer cells MDA-MB-231; type: cell-based, human; settings: MTT, no * mark (incubation time not given)
How it was run: (§1)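 5000 cells/well; compounds 0.1–10 μM (0.1, 1, 5, 10 μM), 48 and/or 72 h. MTT 5 mg/ml, 4 h; formazan in DMSO; OD 570/630 nm. % viability vs matched-DMSO control; IC50 from dose-response curves; cell-free MTT+compound blanks.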

MIAPaCa-2 cells [1] = test: MTT cytotoxicity, pancreas cancer cells MIAPaCa-2; type: cell-based, human
How it was run: (§2)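 Cells were seeded at 5000 per well and treated next day with compound at 0.1, 1, 5 and 10 μM (final) for 48 and/or 72 h, with matched DMSO controls. MTT was added for 4 h and formazan was dissolved in DMSO and read at 570/630 nm. % viability against control gave IC50 from dose-response curves.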

MCF-10F/Beas2b cells = test: MTT cytotoxicity, healthy cells MCF-10F/Beas2b; type: cell-based, human; settings: for Selectivite Index (SI), MCF-10F/Beas2b (Table 1): MCF-10F/Beas2b vs breast or kidney cancer cells
How it was run: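 Cells seeded at 5000 per well were exposed next day to compounds at 0.1, 1, 5 and 10 μM for 48 and/or 72 h. MTT (5 mg/ml) was added for 4 h, formazan dissolved in DMSO, and absorbance read at 570 nm against 630 nm. IC50 came from dose-response curves of % viability versus DMSO controls.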

HCT-116 cells = test: MTT cytotoxicity, colon cancer cells HCT-116; type: cell-based, human
How it was run: as §2

MCF-7 cells = test: MTT cytotoxicity, breast cancer cells MCF-7; type: cell-based, human; settings: for IC50: MTT
How it was run: as §1

A549 cells = test: MTT cytotoxicity, lung cancer cells A549; type: cell-based, human
How it was run: as §1

HT-29 cells = test: MTT cytotoxicity, colon cancer cells HT-29; type: cell-based, human; settings: MTT
How it was run: as §2

HUVEC cells = test: MTT cytotoxicity, healthy cells HUVEC; type: cell-based, human; settings: for Selectivite Index (SI), HUVEC (Table 1): HUVEC vs breast or kidney cancer cells; for IC50: MTT
How it was run: as §1

[2] = tested on: general tyrosine kinase activity in A498 kidney cancer cells; test: General tyrosine kinase activity (ELISA) in A498 cells; type: cell-based, human; settings: 72 h, IC50 concentration
Description: (§3) Takara Universal Tyrosine Kinase Assay Kit is used to determine the effects of 11 2-indolinone compounds (Y1, Y2, Y3, Y4, Y5, Y8, […], […], Y21, Y23, 20C, 22C) on general tyrosine kinase activity in cancer cells. Cells are seeded in 6-well plates (4.10^5 cells/well) and the IC50 concentration of each selected molecule is performed to the cells for 48 or 72 hours. Cells in the control group are incubated with medium only. At the end of the incubation period, the cells in each well are washed with PBS and cells are removed from the wells using a cell scraper via 1 ml of the extraction buffer in the kit. The cell lysate is transferred to ependorf tubes and centrifuged at 10.000 g for 10 minutes at +4° C. and the supernatant is used as a sample for activity determination. After the extracts obtained from the control and experimental groups are diluted 1:25, 40 μl extracts is transferred to two wells in the 96-well plate in the kit. In addition, the standard solution in the kit is diluted according to the kit instructions and each concentration is transferred 40 μl into three wells. 10 μl of 40 mM ATP-2Na solution is added to all wells and the plate is incubated at 37° C. for 30 minutes. […] The reaction is finished by adding 100 μl of stop solution to each well and the optical density in each well is measured at 405 nm with a microplate reader (BioTek, USA). The tyrosine kinase activity in each sample is calculated from the standard curve obtained from the absorbance values of the standard solutions with the kit (Chan W Y, Lau P M, Yeung K W, Kong S K. The second generation tyrosine kinase inhibitor dasatinib induced eryptosis in human erythrocytes—An in vitro study. Toxicol Lett. 2018; 295:10-21). […]
The effects of 11 2-indolinone compounds (Y1, Y2, Y3, Y4, Y5, Y8, Y14, Y21, Y23, 20C and 22C) having the structure of formula (5), which are prominent with their cytotoxicity in A498, MIAPaCa-2 and HCT-116 cancer cell lines and nontoxic properties in healthy cells, on general tyrosine kinase activity in cancer cells are determined.

A498 cells [3] = test: MTT cytotoxicity, kidney cancer cells A498; type: cell-based, human; settings: for IC50: MTT
How it was run: as §1

CAKI-1 cells = test: MTT cytotoxicity, kidney cancer cells CAKI-1; type: cell-based, human
How it was run: as §1

[4] = tested on: general tyrosine kinase activity in HCT116 colon cancer cells; test: General tyrosine kinase activity (ELISA) in HCT-116 cells; type: cell-based, human; settings: 72 hours, IC50 concentration
Description: as §3, with “determination.” for “determination. After the extracts obtained from the control and experimental groups are diluted 1:25, 40 μl extracts is transferred to two wells in the 96-well plate in the kit. In addition, the standard solution in the kit is diluted according to the kit instructions and each concentration is transferred 40 μl into three wells. 10 μl of 40 mM ATP-2Na solution is added to all wells and the plate is incubated at 37° C. for 30 minutes.”

human cancer cells = test: MTT cell viability, human cancer cells overall; type: cell-based; settings: cell line as discussed at the place
Text: The cytotoxicity, general tyrosine kinase inhibitory effects and cell death (apoptosis/necrosis) assays of 1-benzyl-3-(1H-indol-3-ylmethylidene)-1,3-dihydro-2H-indol-2-one derivatives (Formula 5) of the present invention are studied by the following methods. […] HUVEC (human umbilical vein endothelial cell), MCF-10F (human breast epithelial cell) and Beas2b (human lung bronchial epithelial cell) cell lines have been used as healthy control cells in MTT experiments.
Beas2b (human lung bronchiole epithelial cell) and HEK293 (renal tubule epithelium) cells used as normal cell lines were cultured in RPMI medium, and HUVEC (human umbilical cord endothelial cells) and MCF-10F (human breast epithelial cell) cells are cultured in DMEM medium containing 100 µg/ml penicillin/streptomycin. The cells, which covered 70% of the culture flask, are washed with phosphate buffer and then removed from the surface of the flask by application of trypsin-ethylenediamine tetraacetic acid (Trypsin-EDTA; 0.25%) solution, passaged, counted and seeded on appropriate plates before each experiment. Cells are treated with a total of 45 2-indolinone compounds (5) at concentrations of 0.1, 1, 5 and 10 μM. Stock compounds are prepared in 1 ml dimethylsulfoxide (DMSO) and 4 different dilutions were prepared with medium and performed to the cells. Control group cells are treated with DMSO at a similar concentration to the experimental groups.
MTT (3-(4,5-dimethylthiazol-2-yl)-2,5-diphenyl-2H-tetrazolium bromide) colorimetric assay provides quantitation of viable cells with ongoing mitochondrial activity in culture medium. According to the standard procedure in cell culture conditions, cells are maintained in RPMI-1640 and DMEM culture media containing 10% FBS and 1% penicillin/streptomycin. The trypan blue test is used for cell counts.
The effects of 45 2-indolinone compounds (5) on cell viability in all cancer cell lines are investigated by MTT assay. Cells are seeded in a 96-well flat bottom plate with 5000 cells in each well and 2-indolinone compounds (5) at concentrations of 0.1, 1, 5 and 10 μM are performed to the cells the next day. After 48 and/or 72 hours following treatment with 2-indolinone compounds, 50 μl of the supernatant is slowly discarded (as it was acid medium) and MTT at a concentration of 5 mg/ml is added to each well in a volume of 10 μl. After incubation for 4 hours, the formazan crystals formed in the wells are dissolved by adding 100 μl DMSO and the optical density is read at 570 nm test wavelength and 630 nm reference wavelength. Cell viability is expressed as % cell viability by comparing the absorbance of control and test wells. IC50 value is calculated from the dose-response curves prepared for each compound. In addition, the possible DMSO effect is eliminated by preparing negative control wells compatible with the amount of DMSO contained in the compounds. To understand the reaction of the compounds with MTT, cell-free (MTT+compounds) negative controls are prepared at the concentrations used (Mosmann, 1983). […] The absorbance values obtained are compared to the control and statistically evaluated by unpaired t-test using “Graphpad Prism 5.04” software. “P<0.05” is accepted as significant. When evaluating cytotoxic effects, the present inventors aim for the inventive compounds to be effective in cancer cells and ineffective in healthy cells. […]

MIAPaCa-2 cells [5] = test: Apoptosis/necrosis detection, Annexin V/PI flow cytometry, MiaPaca-2; type: cell-based, human
Description: (§4) After incubation with 2-indolinone compounds (IC50 μM concentration; 48 and/or 72 hours), cells are washed twice with PBS and the cell pellet is suspended in Annexin V binding buffer. After this incubation, cells are incubated with FITC-conjugated Annexin V and propidium iodine staining solution for 15 minutes in the dark and at room temperature. Then, cells are analyzed by flow cytometry (Beckman coulter, Navios) (Wlodkowic, D., Skommer, J, Darzynkiewicz, Z. 2009. Flow cytometry-based apoptosis detection, Methods Mol Biol., 559, 1-14).

A498 cells [6] = test: Apoptosis/necrosis detection, Annexin V/PI flow cytometry, A498; type: cell-based, human; settings: A498
Description: as §4

[7] = read-out: IC50, MDA-MB-231 (breast)
[8] = MTT, no * mark (incubation time not specified)
[9] = no * mark (incubation time not specified)
[10] = *: effective 72 hours after incubation

## Cn1cc(/C=C2\C(=O)N(Cc3ccccc3)c3ccc(Cl)cc32)c2ccccc21 [Y23]
MDA-MB-231 cells; [7]
  IC50: 4.72 µM
MIAPaCa-2 cells [1]; [8]
  IC50: > 10 µM
MCF-10F/Beas2b cells; cancer line not given
  Selectivite Index (SI), MCF-10F/Beas2b (Table 1): > 11.23
HCT-116 cells; [9]
  IC50: 1.62 µM
MCF-7 cells; [9]
  IC50: 4.9 µM
A549 cells; [9]
  IC50: > 10 µM
HT-29 cells; [9]
  IC50: 4.18 µM
HUVEC cells; cancer line not given
  Selectivite Index (SI), HUVEC (Table 1): 4.70
HUVEC cells; [9]
  IC50: 4.18 µM
[2]
  general tyrosine kinase activity compared to control: did not cause a significant change
A498 cells [3]; MCF-10F/Beas2b vs A498
  selectivity index: > 11
A498 cells [3]; [9]
  IC50: 0.89 µM
CAKI-1 cells; [9]
  IC50: 4.98 µM

## Cc1cccc(CN2C(=O)/C(=C\c3c[nH]c4ccccc34)c3cc(Cl)ccc32)c1 [20C]
MDA-MB-231 cells; [7]
  IC50: > 10 µM
[4]
  tyrosine kinase activity compared to control: did not cause a significant change
MIAPaCa-2 cells [1]; [8]
  IC50: 1.39 µM
MCF-10F/Beas2b cells; MCF-10F/Beas2b vs colon or pancreas cancer cells, cancer line not given
  Selectivite Index, MCF-10F/Beas2b (Table 2): 13.63
MCF-10F/Beas2b cells; MTT, *: effective 72 hours after incubation
  IC50: 3.68 µM
HCT-116 cells; [9]
  IC50: 0.27 µM
MCF-7 cells; [9]
  IC50: > 10 µM
A549 cells; [9]
  IC50: 4.04 µM
HT-29 cells; [9]
  IC50: 1.16 µM
HUVEC cells; HUVEC vs colon or pancreas cancer cells, cancer line not given
  Selectivite Index, HUVEC (Table 2): 5.63
HUVEC cells; [9]
  IC50: 1.52 µM
A498 cells [3]; [10]
  IC50: 0.97 µM
CAKI-1 cells; [10]
  IC50: 6.19 µM

## O=C1/C(=C\c2c[nH]c3ccccc23)c2cccc(Cl)c2N1Cc1ccccc1 [22C]
MDA-MB-231 cells; [7]
  IC50: 8.4 µM
Human cancer cells
  potency/selectivity compared with sunitinib malate: much more potent and have higher SI values than the reference compound sunitinib malate
MIAPaCa-2 cells [1]; [8]
  IC50: > 10 µM
MCF-10F/Beas2b cells; cancer line not given
  Selectivite Index (SI), MCF-10F/Beas2b (Table 1): > 17.54
HCT-116 cells; [9]
  IC50: > 10 µM
MCF-7 cells; MCF-10F vs MCF-7
  selectivity index (SI): > 17
MCF-7 cells; [9]
  IC50: 0.57 µM
A549 cells; [9]
  IC50: > 10 µM
HT-29 cells; [9]
  IC50: > 10 µM
HUVEC cells; cancer line not given
  Selectivite Index (SI), HUVEC (Table 1): > 17.54
HUVEC cells; [9]
  IC50: > 10 µM
A498 cells [3]; [9]
  IC50: > 10 µM
CAKI-1 cells; [9]
  IC50: 2.49 µM

## CCN(CC)CCNC(=O)c1c(C)[nH]c(/C=C2\C(=O)Nc3ccc(F)cc32)c1C [Sunitinib malate, reference compound]
MDA-MB-231 cells; Homo sapiens, MDA-MB-231, read-out: IC50, MDA-MB-231 (breast)
  IC50: > 10 µM
MIAPaCa-2 cells [1]; Homo sapiens, MIA PaCa-2, 72 h, MTT, *: effective 72 hours after incubation
  IC50: 4.03 µM
MIAPaCa-2 cells [1]; Homo sapiens, MIA PaCa-2, MTT, no * mark (incubation time not given)
  IC50: 0.61 µM
MIAPaCa-2 cells [1]; [8]
  IC50: 1.18 µM
HCT-116 cells; Homo sapiens, HCT-116, no * mark (incubation time not given)
  IC50: 1.78 µM
MCF-7 cells; Homo sapiens, MCF7, no * mark (incubation time not given)
  IC50: 9.78 µM
MIAPaCa-2 cells [5]; MiaPaca-2
  necrosis compared to control: did not cause necrosis
MIAPaCa-2 cells [5]; MiaPaca-2, IC50 values
  apoptosis (early and late) compared to control: increase in apoptosis at IC50 values was statistically significant
A549 cells; Homo sapiens, A549, no * mark (incubation time not given)
  IC50: > 10 µM
HT-29 cells; Homo sapiens, HT-29, no * mark (incubation time not given)
  IC50: 2.94 µM
HUVEC cells; Homo sapiens, HUVEC, no * mark (incubation time not given)
  IC50: 2.94 µM
A498 cells [6]
  necrosis compared to control: no increase or decrease
A498 cells [6]; Y3 at IC50, sunitinib malate 10 μM
  viability, early apoptosis and late apoptosis compared to control: 10 μM dose is found to be the most significant
A498 cells [3]; Homo sapiens, A498, 72 h, *: effective 72 hours after incubation
  IC50: 3.46 µM
A498 cells [3]; [9]
  IC50: 3.71 µM
A498 cells [3]; no * mark (incubation time not specified), listed as sunitinib malate
  IC50: > 10 µM
CAKI-1 cells; Homo sapiens, CAKI-1, no * mark (incubation time not given)
  IC50: 5.13 µM

From patent US20260335282A1, “NOVEL 3-ARYLIDENE-2-INDOLINONE DERIVATIVES FOR THERAPEUTIC USE” (ISTANBUL UNIVERSITESI REKTORLUGU, priority 2022, published 2026)
